Patent US20260193647A1, “MIRNA-BASED CANCER THERAPY WITH A TUMOR-NAVIGATING PEPTIDE” (The Board of Trustees of the Universities of Illinois, priority 2022, published 2026)

Experiments:
[1] = parameters: species or system mice; conditions: mouse, in vivo
Description: Collected samples were fixed with buffered 3.7% formalin (Anatech) for 24 hr. Formalin was replaced with 70% ethanol following fixation. Samples were paraffin-embedded, and blocks were cut into 4 μm-thick sections and mounted onto slides which were processed for H&E staining. H&E-stained slides were analyzed by a pathologist blinded to the experimental groups.
Alanine transaminase (ALT) activity was measured using ALT assay kits (Sigma, #MAK052) and serum aspartate transaminase (AST) activities was measured using AST assay kits (Sigma, #MAK055) following the manufacturer's instructions. Briefly, serum samples at different dilutions, were reacted with ALT or AST reaction mixture and plated on 96-well plate, followed by reading at A450. The final calculations were done by comparing the sample readings with that of standard curve (pyruvate standards for ALT and glutamate standards for AST).

[2] = test system: genes associated with the EGFR, p53 and TGF pathways; test: qPCR of downstream targets of miR-20a; format: cell-based, human; conditions: 10 nM, 24 hr
[3] = test system: MDA-MB231, SKOV3, Mia-Paca2, Colon 205 and DU145 cells; test: CCK-8 cell viability assay, other solid tumor cells; format: cell-based, human; conditions: 10 nM
Description: Cell viability was evaluated by a CCK-8 assay (Dojindo, Japan). Cells were seeded at a density of 4,000 cells per well in 100 μl of growth medium in 96-well plates and grown overnight. Then, the cells were exposed to antisense miR-20a alone, p28 alone or negative control or AmiR20-p28 over a range of concentrations and incubated for 24 hr. According to the manufacturer's instructions, 10 μl of CCK-8 solution was added to each well, followed by incubation for 1 hr at 37° C. The absorbance at 450 nm was determined by a multiplate reader.

SJ-GBM2-luc tumors = test: Intracranial orthotopic SJ-GBM2-luc xenograft: bioluminescence and survival; format: in vivo, mice
Description: All animal experiments were performed in accordance with the use of animals in research and approved by IACUC. SJ-GBM2 cells stably expressing luciferase gene (pGL4.51 [luc2/CMV/Neo], Promega) were generated by a chemical transfection method (FuGENE HD, Promega) in the presence of G418 antibiotics (GoldBio). 4-5 weeks athymic mice were purchased from The Jackson Laboratory. SJ-GBM2-luc cell lines was maintained to 70% confluency and checked for their luminescence activity. Similar to the implantation method described previously, cells were resuspended in PBS at a final concentration of 10^6 cells/3 μl. Following anesthesia, a midline incision was made on the calvarium, extending from bregma to lambda sutures. At a position 2 mm posterior to bregma and 2 mm lateral to the […], a 3-mm hole was made in the skull. A 26-gauge Hamilton syringe was inserted into the hole, and 3 μl of 10^6 cells was injected slowly. The injection site was covered with sterile bone wax and sutured. As the first set of experiment, mice were randomly divided into the experimental groups and the dose finding studies were conducted with AmiR20-p28 at 0.1, and 1 mg/kg. AmiR20-p28 was administered every other day three times a week i.v. via the tail vein (200 μl/injection). As the second set of experiment, mice were randomly divided into the groups of PBS or AmiR20-p28 at 1 and 5 mg/kg (N=5). […] Mice were sacrificed based on the following humane endpoints such as >20% weight loss, the presence of labored respiration, abnormal behavior (e.g., paralysis), and loss of the ability to ambulate.
D-Luciferin potassium salt (GoldBio, #LUCK-100) at 150 mg/kg was injected intraperitoneally into the mice. Mice were anesthetized in a chamber with isoflurane/oxygen and positioned for bioluminescent imaging using a Spectral Lago X imaging system (Accela, Czech Republic). A series of images was acquired over a duration up to 30 min after the time of D-luciferin injection. Aura software (version 3.2) was used to compute regions of interest (ROIs) and integrate the total bioluminescence signal in each ROI. Data were analyzed based on radiance (photons/second/cm^2/steradian) in the ROIs. The radiance values were plotted for each animal in the experimental group to form the tumor growth curve. Overall survival was also evaluated based on their survival period (mice died due to disease or were sacrificed based on the humane endpoints criteria). For X-ray imaging, the anesthetized mice were positioned, and a Spectral Lago X imaging system was used to take images. Aura software was used to merge the images taken with X-ray and bioluminescent systems.

miR-20a = miR-20a expression levels by stem loop qPCR in treated cells; format: cell-based, human; conditions: 10 nM, 24 hr
Text: Micro RNA enriched fraction was extracted using the miRNeasy Mini Kit (Qiagen, Catalog #217004) following the manufacturer's instructions. Stem loop real-time qPCR was used to analyze miRNA expression. We designed miR-20a stem loop RT primers and amplification primers according to a previously described method 79. cDNA was synthesized from extracted RNA using unique stem loop RT primers. The sequence of the stem loop primer for miR-20a was 5′-[…]-3′ (SEQ ID NO:7). Reverse transcriptase reactions contained the following reagents: 10 ng of RNA sample, 60 nM stem-loop RT primer, 1×RT buffer, 0.25 mM dNTP, and 4 U/μl reverse transcriptase. Reactions were performed by incubation at 16° C. for 30 min, 42° C. for 30 min and 85° C. for 5 min. Real-time PCR (7300 Real time PCR Systems, Applied Biosystems, CA) was performed using the specific forward primer for miR-20a (5′-[…]-3′ (SEQ ID NO:8)) and a universal reverse primer (5′-GTGCA GGGTC CGAGGT-3′ (SEQ ID NO:9)). The 20-μl PCR mixture included 1×SYBR Premix (Invitrogen), 2 μl of RT products and each forward and reverse primer at 10 nM. Reactions were performed by incubation in a 96-well plate at 95° C. for 30 sec, followed by 35 cycles of 95° C. for 30 sec and 60° C. for 30 sec. U6 was used as an internal control to normalize the level of target miRNAs. The results were verified by performing PCR using M13 modified forward and reverse primers specific to stem loop sequence. The PCR products were visualized in 2% agarose gels and DNA-sequence was confirmed. Human tumor and serum samples were obtained from patients who had signed informed consent and the institutional review board approval was obtained in Pediatric Brain Tumor Consortium (PBTC-041) participating sites.

[4] = Example 6, 1 mg/kg i.v., late phase

For “AmiR20-p28: BBB-permeable tumor-navigating CPP p28 (Cys-p28) covalently linked to 2′ O-methyl antisense miR-20a (5′-maleimide)”, the “histology of heart, lung, liver, spleen, and kidney” value [1] was “no AmiR20-p28-related differences in histology”, the “adverse effects (hepatotoxicity assay, hemolysis assay, histological examination)” value ([1]; iv, 1 mg/kg) was “without apparent adverse effects” and the EGFR expression levels ([2]; LN-229 cells) was “decreased EGFR expression levels”. For the same substance, the “expression of p53, p21, Bax and E2F” value ([2]; LN-229 cells) was “significantly increased”, the “expression levels of EGFR, Ras, MEK1, ERK1, c-Fos, c-Jun, β-catenin, TCF-1 and Lef1 genes” value ([2]; SJ-GBM2 and CHLA-200 cells) was “significantly decreased” and the “expressions of p53, p21, Bax, and E2F” value ([2]; SJ-GBM2 and CHLA-200 cells) was “robust increase”. For the same substance, the gene expression levels ([2]; normal human astrocytes) was “no significant effect on gene expression levels”, the “effect on the viability” value [3] was “little effect on the viability” and the tumor recurrence (SJ-GBM2-luc tumors; 1 and 5 mg/kg, continued or stopped treatment after four weeks, additional ~two months) was “neither the 1 mg/kg nor the 5 mg/kg dose groups exhibited any signs of tumor recurrence”. For the same substance, the “tumor growth (bioluminescence)” value (SJ-GBM2-luc tumors; 1 or 5 mg/kg i.v. 3× weekly, vs PBS or 0.1 mg/kg) was “significant inhibition of tumor growth”, the overall survival rate (SJ-GBM2-luc tumors; Example 6, 1 mg/kg i.v., early phase) was 100% and the “tumor growth (bioluminescence)” value (SJ-GBM2-luc tumors; Example 6, 1 mg/kg i.v., early phase, start 10 days after cell injection) was “complete repression of tumor”. The “mice survived at day 49” value (SJ-GBM2-luc tumors; [4]) was 80%, the overall survival rate (SJ-GBM2-luc tumors; [4]) was 40% and the “tumor growth (bioluminescence)” value (SJ-GBM2-luc tumors; Example 6, 1 mg/kg i.v., late phase, start 40 days after cell injection) was “tumor progression was observed”. The overall survival rate (SJ-GBM2-luc tumors; Example 6, 1 mg/kg i.v., middle phase) was 80%, the “tumor growth (bioluminescence)” value (SJ-GBM2-luc tumors; Example 6, 1 mg/kg i.v., middle phase, start 20 days after cell injection) was “sustained suppression of the tumor burden” and the “tumor growth (bioluminescence)” value (SJ-GBM2-luc tumors; Example 7, 1 mg/kg i.v., early phase, 10 days after cell injection) was “complete repression of tumor”. The “tumor growth (bioluminescence)” value (SJ-GBM2-luc tumors; Example 7, 1 mg/kg i.v., late phase, 42 days after cell injection) was “tumor progression”, the “tumor growth (bioluminescence)” value (SJ-GBM2-luc tumors; Example 7, 1 mg/kg i.v., middle phase, 21 days after cell injection) was “sustained suppression of tumor growth” and the overall survival probability (SJ-GBM2-luc tumors; Example 7, 1 mg/kg, late phase) was 60%. For the same substance, the “tumor growth (bioluminescence)” value (SJ-GBM2-luc tumors; Example 7, 1 mg/kg, vs PBS and 0.1 mg/kg) was “significant repression in tumor growth”, the “miR-20a expression levels reduced by” value (miR-20a; CHLA-200 cells) was 96% and the “miR-20a expression levels reduced by” value (miR-20a; LN-229 cells) was 84%. For the same substance, the “miR-20a expression levels reduced by” value (miR-20a; SJ-GBM2 cells) was 94% and the miR-20a levels (miR-20a; normal human astrocytes) was “not significantly altered”.
